Calls of active or inactive are those of the source.
Key:
Assay type in all cases: functional, organism-based
Parameters in all cases: dose 10 mg/kg
Ehrlichia canis [1] = assay: Antimicrobial activity against Ehrlichia canis infected in Beagle dog AHK at 10 mg/kg, po once daily for 14 days measured 55 days post-tick attachment after drug administration by PCR
Ehrlichia canis [2] = assay: Antimicrobial activity against Ehrlichia canis infected in Beagle dog AHG at 10 mg/kg, po once daily for 14 days measured 76 days post-tick attachment after drug administration by PCR
Ehrlichia canis [3] = assay: Antimicrobial activity against Ehrlichia canis infected in Beagle dog AIP at 10 mg/kg, po once daily for 14 days measured 83 days post-tick attachment after drug administration by PCR
Ehrlichia canis [4] = assay: Antimicrobial activity against Ehrlichia canis infected in Beagle dog AUF at 10 mg/kg, po once daily for 14 days measured 104 days post-tick attachment after drug administration by PCR
Ehrlichia canis [5] = assay: Antimicrobial activity against Ehrlichia canis infected in Beagle dog AIP with brown dog tick assessed as infected ticks at 10 mg/kg, po once daily for 14 days measured 7 days post-tick attachment after drug administration by PCR

Measured: Activity

C[C@H]1c2cccc(O)c2C(=O)C2=C(O)[C@]3(O)C(=O)C(C(N)=O)=C(O)[C@@H](N(C)C)[C@@H]3[C@@H](O)[C@@H]21
inactive: all assays above
